In US7368469B2, “Use of inhibitors of the renin-angiotensin system in the prevention of cardiovascular events” (Sanofi-Aventis Deutschland GmbH, priority 1999, dated 2008):
Where two headings read alike, the source gives them in different places.

Key:
[1] = tested on: high risk patients without known low EF or HF; type: in vivo; conditions: for Blood pressure: active group
Protocol: A large-scale clinical trial (HOPE (Heart Outcomes Prevention Evaluation) Study) was designed to examine the effect of the ACE inhibitor ramipril versus placebo in reducing cardiovascular events. 9,297 high risk patients (≧55 yrs with evidence of vascular disease or diabetes plus one additional risk factor), without known low EF or HF were randomized to receive Ramipril (2.5 mg to 10 mg/day) or matching placebo for a mean duration of 5 years. The primary outcome was the first occurrence of the composite of cardiovascular (CV) mortality, myocardial infarction or stroke. The study was stopped at 4.5 years by the independent Data and Safety Monitoring Board because of convincing evidence of benefit. 646 (13.9%) patients allocated to Ramipril and 816 (17.5%) placebo patients experienced a primary outcome (Relative risk, RR of 0.78, 95% confidence interval of 0.70-0.86; Portable=0.000002). There were clear and significant reductions separately in CV deaths (6.0% v. 8.0%, RR of 0.75, Portable=0.0002), myocardial infarction (9.8% v.12.0%, RR of 0.68, Portable=0.0002). […] Other outcomes included worsening or new angina, or new heart failure (irrespective of hospitalization).
In a double blind, 2×2 factorial, randomized trial, HOPE evaluated Ramipril or vitamin E in 9541 patients. A substudy of 244 patients tested a low dose (2.5 mg/day) versus the full dose (10 mg/day) of Ramipril. The primary outcome in these 244 patients is reported as a footnote to Table 3. Therefore the main results report is on 9,297 patients randomized to receive 10 mg Ramipril or equivalent placebo. The effects of vitamin E are reported separately. The design of HOPE has been published (Can J Cardiology 1996; 12(2); 127-137), a brief summary follows below:
Men and women were eligible if aged 55 years and older, with prior coronary artery disease, stroke, peripheral vascular disease or diabetes plus at least one other risk factor (current or previous hypertension, elevated total cholesterol, low HDL cholesterol, current cigarette smoking, known microalbuminuria or previous vascular disease). Patents who had HF, were known to have low EF, those on ACE-I or vitamin E, those with uncontrolled hypertension or overt nephropathy, or recent MI (<4 weeks) were excluded. In this large, simple trial it was impractical to measure left ventricular function in all patients (none of whom had heart failure or were considered to need an ACE-I). Instead, echocardiograms were done in all patients (n=496) from 3 centres who entered a substudy. […] Additionally, an audit of charts identified that in 5285 patients a prerandomization and evaluation of ventricular function had been conducted. Only 409 (7.7%) were documented to have low EF and none had heart failure prior to randomization. A separate analysis of those documented to have a preserved EF (n=4876) is provided. After obtaining written informed consent, all eligible patients entered a run in phase where they received 2.5 mg Ramipril OD for 7-10 days followed by matching placebo for 10-14 days. Patients who were non compliant (<80% of pills taken), who experienced side effects, developed abnormal creatinine or potassium levels or those who withdrew consent were excluded. 9,541 were included; 9,297 were randomized to receive Ramipril at 10 mg/day or matching placebo, with 244 randomized to low dose (2.5 mg/day) of Ramipril.
At randomization, patients were allocated to receive Ramipril at 2.5 mg OD for one week, then 5 mg OD for another 3 weeks, followed by 10 mg once daily, or matching placebo. Additionally, all patients were randomized to vitamin E 400 IU/day or matching placebo. Follow-up visits occurred at 1 month, 6 months and then at 6 month intervals. At each visit, data were collected on events, compliance, and side effects leading to alteration of study medications. All primary and secondary events were documented on additional forms and were centrally adjudicated using standardized definitions. […]

[2] = tested on: high risk patients without known low EF or HF; type: in vivo; conditions: subgroup with documented preserved ventricular function (n=4676), vs placebo
[3] = tested on: patients randomized to captopril compared to a diuretic or beta blocker; conditions: cited from earlier work
[4] = Ramipril 10 mg/day group, n=4645
[5] = Ramipril group, diabetic nephropathy, renal dialysis, laser therapy
[6] = Ramipril group, irrespective of hospitalization
[7] = both, human, in vivo, 4.5 years

Q: Which “Relative risk reduction (conditional RRR)” value ([1]; 2nd year) does the source give for CCOC(=O)[C@H](CCc1ccccc1)N[C@@H](C)C(=O)N1[C@H](C(=O)O)C[C@@H]2CCC[C@@H]21 [Ramipril, ramipril] here?
A: 22%

Q: What about the “Relative risk reduction (conditional RRR)” value ([1]; 3rd year) of the same molecule?
A: 26%

Q: And the “Relative risk reduction (conditional RRR)” value ([1]; 4th year)?
A: 27%

Q: And the “Relative risk reduction in the primary outcome at interim analysis” value ([1]; DSMB interim look, Mar. 22, 1999, 95% CI 12% to 28%)?
A: 20%

Q: And the “Primary outcome CV death, MI, stroke: % of patients” value [1, 4]?
A: 13.9%

Q: And the “Primary outcome CV death, MI, stroke: number of patients” value [1, 4]?
A: 646

Q: And the “New diagnosis of diabetes: % of patients” value ([1]; Ramipril group)?
A: 3.8%

Q: And the “New diagnosis of diabetes: number of patients” value ([1]; Ramipril group)?
A: 108

Q: And the “Stopping blinded medication for hypotension/dizziness: %” value ([1]; Ramipril group)?
A: 1.8%

Q: And the “Stopping blinded medication for hypotension/dizziness: number” value ([1]; Ramipril group)?
A: 82

Q: What about the “Primary outcome: number of patients at 2 years” value ([1]; Ramipril group, at 2 years) of the same molecule?
A: 323

Q: What about the “Cardiac arrests: % of patients” value ([1]; Ramipril group, n=4645) of the same molecule?
A: 0.8%

Q: And the “Cardiac arrests: number of patients” value ([1]; Ramipril group, n=4645)?
A: 37

Q: What about the “Heart failure hospitalizations: % of patients” value ([1]; Ramipril group, n=4645) of the same molecule?
A: 3.2%

Q: And the “Heart failure hospitalizations: number of patients” value ([1]; Ramipril group, n=4645)?
A: 150

Q: And the “MI: % of patients” value ([1]; Ramipril group, n=4645)?
A: 9.8%

Q: And the “MI: number of patients” value ([1]; Ramipril group, n=4645)?
A: 453

Q: What about the “Revascularization: % of patients” value ([1]; Ramipril group, n=4645) of the same molecule?
A: 16.0%

Q: And the “Revascularization: number of patients” value ([1]; Ramipril group, n=4645)?
A: 742

Q: And the “Strokes: % of patients” value ([1]; Ramipril group, n=4645)?
A: 3.3%

Q: And the “Strokes: number of patients” value ([1]; Ramipril group, n=4645)?
A: 155

Q: What about the “Total mortality: % of patients” value ([1]; Ramipril group, n=4645) of the same molecule?
A: 10.3%

Q: What about the “Total mortality: number of patients” value ([1]; Ramipril group, n=4645) of the same molecule?
A: 476

Q: And the “UA with ECG changes: % of patients” value ([1]; Ramipril group, n=4645)?
A: 3.4%

Q: What about the “UA with ECG changes: number of patients” value ([1]; Ramipril group, n=4645) of the same molecule?
A: 179

Q: And the “Unstable angina hospitalization: % of patients” value ([1]; Ramipril group, n=4645)?
A: 12.1%

Q: And the “Unstable angina hospitalization: number of patients” value ([1]; Ramipril group, n=4645)?
A: 564

Q: What about the “Primary outcome: number of patients within 1 year after randomization” value ([1]; Ramipril group, within 1 year) of the same molecule?
A: 167

Q: What about the “Permanently discontinuing blinded medication, % of alive” value ([1]; Ramipril group, % of alive) of the same molecule?
A: 29.1%

Q: What about the “Stopping blinded medication at any time, % of alive” value ([1]; Ramipril group, % of alive) of the same molecule?
A: 33.0%

Q: And the “Diabetic complications: % of patients” value [1, 5]?
A: 6.4%

Q: What about the “Diabetic complications: number of patients” value [1, 5] of the same molecule?
A: 298

Q: And the “All heart failure (new heart failure): number of patients” value [1, 6]?
A: 343

Q: And the “All heart failure: % of patients” value [1, 6]?
A: 7.4%

Q: And the “Worsening angina: % of patients” value [1, 6]?
A: 23.8%

Q: And the “Worsening angina: number of patients” value [1, 6]?
A: 1104

Q: What about the “Difference in BP reduction, diastolic” value ([1]; Ramipril vs placebo) of the same molecule?
A: −2 mmHg

Q: What about the “Difference in BP reduction, systolic” value ([1]; Ramipril vs placebo) of the same molecule?
A: −3 mmHg

Q: What about the “Impact on hospitalizations for unstable angina” value ([1]; Ramipril vs placebo) of the same molecule?
A: no impact

Q: And the “Increase in patients stopping medication for dizziness/hypotension” value ([1]; Ramipril vs placebo, nonsignificant)?
A: 0.3%

Q: What about the Blood pressure ([1]; at 1 month, 139/79 at entry) of the same molecule?
A: 133/76

Q: And the Blood pressure ([1]; at 2 years)?
A: 135/76

Q: What about the Blood pressure ([1]; at the end of the study) of the same molecule?
A: 136/76

Q: What about the “Excess of patients stopping for cough” value [1, 7] of the same molecule?
A: 5%

Q: And the “No. permanently discontinuing blinded medication” value [1, 7]?
A: 1207

Q: And the “No. stopping blinded medication at any time” value [1, 7]?
A: 1370

Q: And the “Stopping blinded medication for angioedema: %” value [1, 7]?
A: 0.3%

Q: And the “Stopping blinded medication for angioedema: number” value [1, 7]?
A: 16

Q: What about the “Stopping blinded medication for cough: %” value [1, 7] of the same molecule?
A: 7.2%

Q: And the “Stopping blinded medication for cough: number” value [1, 7]?
A: 335

Q: What about the “Composite outcome of CV death, MI, stroke, heart failure, revascularization and diabetic complications” value ([1]; diabetic patients with no clinical manifestations of CVD (1100)) of the same molecule?
A: significantly reduced

Q: And the Relative risk reduction ([1]; first year of the trial)?
A: about 11%

Q: What about the “Primary outcome relative risk conditioned on survival up to the prior year” value ([1]; fourth year) of the same molecule?
A: 0.73

Q: What about the Tolerability ([1]; in the trial) of the same molecule?
A: generally well tolerated

Q: And the “Primary outcome relative risk conditioned on survival up to the prior year” value ([1]; second year)?
A: 0.78

Q: What about the “Primary composite outcome relative risk (95% CI)” value ([1]; subgroup Age 65+, 5128 patients) of the same molecule?
A: 0.75 (0.66-0.85)

Q: What about the “Primary composite outcome relative risk (95% CI)” value ([1]; subgroup Age <65, 4169 patients) of the same molecule?
A: 0.82 (0.70-0.98)

Q: What about the “Primary composite outcome relative risk (95% CI)” value ([1]; subgroup CAD+, 7475 patients) of the same molecule?
A: 0.80 (0.71-0.89)

Q: And the “Primary composite outcome relative risk (95% CI)” value ([1]; subgroup CAD−, 1822 patients)?
A: 0.71 (0.54-0.93)

Q: And the “Primary composite outcome relative risk (95% CI)” value ([1]; subgroup CVD+, 8160 patients, Ramipril vs placebo)?
A: 078 (0.71-0.87)

Q: What about the “Primary composite outcome relative risk (95% CI)” value ([1]; subgroup CVD−, 1137 patients) of the same molecule?
A: 0.81 (0.56-1.20)

Q: What about the “Primary composite outcome relative risk (95% CI)” value ([1]; subgroup Cerebro VD+, 1013 patients) of the same molecule?
A: 0.73 (0.56-0.95)

Q: What about the “Primary composite outcome relative risk (95% CI)” value ([1]; subgroup Cerebro VD−, 8284 patients) of the same molecule?
A: 0.79 (0.71-0.88)

Q: What about the “Primary composite outcome relative risk (95% CI)” value ([1]; subgroup Diabetes+, 3578 patients) of the same molecule?
A: 0.76 (0.65-0.89)

Q: What about the “Primary composite outcome relative risk (95% CI)” value ([1]; subgroup Diabetes−, 5719 patients) of the same molecule?
A: 0.79 (0.69-0.91)

Q: And the “Primary composite outcome relative risk (95% CI)” value ([1]; subgroup Female, 2480 patients)?
A: 0.76 (0.61-0.95)

Q: What about the “Primary composite outcome relative risk (95% CI)” value ([1]; subgroup Hypertension+, 4355 patients) of the same molecule?
A: 0.75 (0.65-0.87)

Q: What about the “Primary composite outcome relative risk (95% CI)” value ([1]; subgroup Hypertension−, 4942 patients) of the same molecule?
A: 0.81 (0.70-0.93)

Q: What about the “Primary composite outcome relative risk (95% CI)” value ([1]; subgroup MA+ (microalbuminuria), 1963 patients) of the same molecule?
A: 0.71 (0.59-0.86)

Q: And the “Primary composite outcome relative risk (95% CI)” value ([1]; subgroup MA−, 7334 patients)?
A: 0.82 (0.72-0.92)

Q: What about the “Primary composite outcome relative risk (95% CI)” value ([1]; subgroup Male, 6817 patients) of the same molecule?
A: 0.79 (0.70-0.89)

Q: And the “Primary composite outcome relative risk (95% CI)” value ([1]; subgroup PVD+, 4046 patients)?
A: 0.74 (0.64-0.86)

Q: And the “Primary composite outcome relative risk (95% CI)” value ([1]; subgroup PVD−, 5251 patients)?
A: 0.84 (0.72-0.98)

Q: What about the “Primary composite outcome relative risk (95% CI)” value ([1]; subgroup Prior MI+, 4892 patients) of the same molecule?
A: 0.79 (0.69-0.90)

Q: What about the “Primary outcome, events/patients, documented EF≧0.40” value ([1]; subgroup with documented EF≧0.40 (n=4676), Ramipril group) of the same molecule?
A: 317/2339

Q: And the “Primary outcome relative risk conditioned on survival up to the prior year” value ([1]; third year)?
A: 0.74

Q: What about the “Primary outcome RR at 2 years” value ([1]; vs placebo, at 2 years) of the same molecule?
A: 0.81

Q: What about the “Primary outcome RR within 1 year after randomization” value ([1]; vs placebo, within 1 year) of the same molecule?
A: 0.85

Q: What about the “Primary outcome RR, documented EF≧0.40” value [2] of the same molecule?
A: 0.73

Q: Which Newly diagnosed diabetes [3] does the source give for C[C@H](CS)C(=O)N1CCC[C@H]1C(=O)O [captopril] here?
A: reduction in newly diagnosed diabetes
